# Laboratory results as given in publication PMC8765320, “Identification of a Proteasome-Targeting Arylsulfonamide with Potential for the Treatment of Chagas’ Disease” (Antimicrobial Agents and Chemotherapy, 2022).
# Where two headings read alike, the source gives them in different places.
# Key:
# [1] = tested on: T. cruzi amastigotes within Vero cells; test: Drug sensitivity assay against T. cruzi-infected Vero cells (intracellular amastigotes); format: cell-based, Trypanosoma cruzi; details: for EC50: Trypanosoma cruzi, Vero
# Description: The clonal Leishmania donovani cell line LdBOB (derived from MHOM/SD/62/1S-CL2D) was grown as either promastigotes or axenic amastigotes in media specific for each developmental stage, as previously described ([32]). T. cruzi epimastigotes from the Silvio strain (MHOM/BR/78/Silvio; clone X10/7A [33]) were grown at 28°C in RTH/FBS (RPMI 1640 medium supplemented with Trypticase, hemin, HEPES, and 10% heat-inactivated fetal calf serum (FCS) [Fisher Scientific]) ([34]). Bloodstream form T. brucei “single marker” S427 (T7RPOL TETR NEO) were cultured in the presence of G418 (15 μg ml^−1) at 37°C in HMI9-T media in the presence of 5% CO2. HepG2 cells (ECACC 85011430) were obtained from European Collection of Authenticated Cell Culture (ECACC). Cells were maintained in full growth medium (minimal essential medium [MEM] with GlutaMAX (Thermo Fisher), supplemented with 1% MEM nonessential amino acids (Sigma) and 10% heat-inactivated FBS and cultured at 37°C in the presence of 5% CO2. Cells were passaged twice weekly by detaching adherent cells with 0.05% trypsin/EDTA (Sigma) and diluted into fresh media. Cells were never grown beyond 80% confluence. Vero cells (African green monkey kidney cells; ECCAC 84113001) were maintained at 37°C, 5% CO2 in Dulbecco modified Eagle medium (DMEM; Lonza) supplemented with 10% FCS and subcultured every 2 days. T. cruzi metacyclic trypomastigotes were obtained from late-log-phase epimastigote cultures (initial inoculum, 10^6 ml^−1) after ca. 7 to 10 days at 28°C in RTH/FBS. Trypomastigote-rich cultures were incubated with Vero cells overnight at 37°C and 5% CO2 in DMEM/10% FCS. The following day, extracellular parasites were removed by washing the Vero cell monolayer three times. Infected monolayers were maintained at 37°C and in 5% CO2, DMEM/10% FCS was replaced every 48 h until the trypomastigotes reemerged from the Vero cells ([9]).
# Drug sensitivity assays against T. cruzi-infected Vero cells were carried out as previously described ([37]); however, in this instance, assays were carried out in 96-well plates. Data were processed using GRAFIT (Erithacus software) and fitted to a two-parameter equation, as described above.
# [2] = tested on: ubiquitinated proteins in T. cruzi epimastigotes; test: Accumulation of ubiquitinated proteins in treated epimastigotes (LC-MS/MS); format: cell-based, Trypanosoma cruzi; details: epimastigotes pretreated 8 h at 3× EC50 (methods: 8× EC50); one biological replicate
# Description: In cells where the function of the proteasome has been compromised, there is a concomitant build-up of ubiquitinated proteins earmarked for degradation. […] Control cultures were treated for the same period of time in the presence of dimethyl sulfoxide (DMSO). Enrichment of ubiquitinated proteins was achieved by immunoprecipitation using magnetic beads conjugated to an antibody specific for the remnant of ubiquitinated lysines following digestion with trypsin and/or LysC. We used liquid chromatography-tandem mass spectrometry (LC-MS/MS) to calculate the ubiquitination ratio of each sample by dividing the reporter intensity of ubiquitinated proteins by the reporter intensity of total protein (see Table S8). As expected, the accumulation of ubiquitinylated proteins was highest in epimastigotes treated with bortezomib (2.7-fold higher than in the DMSO-treated control), which is known to inhibit all three catalytic activities of the proteasome (Fig. 3). […] Similarly, ubiquitinated proteins accumulated to levels 1.9-fold higher in compound 1-treated parasites compared to those recovered from DMSO-treated control cells.
# Controls were incubated in the presence of diluent (DMSO). Cells were harvested by centrifugation (1,912 × g, 15 min, 4°C) and washed with ice-cold PBS (1,912 × g, 5 min, 4°C); finally, the cell pellets were resuspended in 1.5 ml of ice-cold lysis buffer (1 mM EDTA, 1 mM DTT, 100 μM TLCK, and 1× Roche EDTA-free cOmplete protease inhibitor cocktail in 50 mM potassium phosphate buffer [pH 7.4]). Cell suspensions were submitted to three freeze-thaw cycles in a dry ice/ethanol bath to biologically inactivate the parasites and then lysed using a OneShot cell disruptor (Constant Systems) at 30 kpsi.
# Cell lysates were centrifuged (100,000 × g, 20 min, 4°C), supernatants were collected, and the protein concentrations were determined by using a standard Bio-Rad protein assay. […]
smiles,measurement,setting,value
COc1ccc(NS(=O)(=O)c2cc(-c3cc(C)n[nH]3)ccc2C)cc1OC [Compound 1],EC50,"[1]; T. cruzi Intra-Vero, weighted mean, n ≥ 3, read-out: Mean compound 1 EC50 ± SD",1300 ± 200 nM
same,EC50,"[1]; in Vero cells, cell line ME OE, (*) one biological replicate, read-out: EC50 values",800 ± 70 nM
same,EC50,"[1]; in Vero cells, cell line RES 1, read-out: EC50 values",10000 ± 5000 nM
same,EC50,"[1]; in Vero cells, cell line RES 5, read-out: EC50 values",> 50000 nM
same,EC50,"[1]; in Vero cells, cell line Wild-type, read-out: EC50 values",1000 ± 200 nM
same,EC50,"[1]; in Vero cells, cell line β5 OE rescue R1, (*) one biological replicate, read-out: EC50 values",3000 ± 200 nM
same,EC50,"[1]; in Vero cells, cell line β5 OE, read-out: EC50 values",1000 ± 200 nM
same,EC50,"[1]; read-out: EC50 values, in Vero cells, cell line β4 F24L/I29M",> 23000 nM
same,EC50,"[1]; read-out: EC50 values, in Vero cells, cell line β5 D225N-OE, (*) one biological replicate",12000 ± 1400 nM
same,fold change versus WT,"[1]; in Vero cells, cell line ME OE",1 fold
same,fold change versus WT,"[1]; in Vero cells, cell line RES 1",8 fold
same,fold change versus WT,"[1]; in Vero cells, cell line RES 5",> 42 fold
same,fold change versus WT,"[1]; in Vero cells, cell line Wild-type",1 fold
same,fold change versus WT,"[1]; in Vero cells, cell line β4 F24L/I29M",> 19 fold
same,fold change versus WT,"[1]; in Vero cells, cell line β5 D225N-OE",10 fold
same,fold change versus WT,"[1]; in Vero cells, cell line β5 OE",1 fold
same,fold change versus WT,"[1]; in Vero cells, cell line β5 OE rescue R1",2 fold
same,accumulation of ubiquitinated proteins versus DMSO-treated control,[2],1.9 fold
